Experiment [1] relates to cerebellar slices. Description: Remyelination of LPC-demyelinated cerebellar slice cultures. Format: cell-based, mouse. As to conditions: Gpr56+/+;Tgm2−/− cerebellar slices, LPC 24 hr, 4 days of remyelination, TG2 20 nM; listed as Recombinant TG2. An excerpt: FIG. 12D provides composite images created in Image J showing myelinated axons (black) for quantification. FIG. 12E is a graph showing percentage of myelinated axons after remyelination. Remyelination was reduced in cerebellar slices that lacked OPC-derived GPR56. *P=0.0135, paired t-test, N=5 per genotype. FIG. 12F provides representative images of cerebellar slice cultures from P10 Gpr56^+/+; Tgm2^−/− and Gpr56^−/−; Tgm2^−/− mouse cerebella that were demyelinated with LPC for 24 hr followed by 4 days of remyelination in the presence or absence of TG2 (20 nM). Slices were immunostained with NF200 (white) and MBP (light gray); myelinated fibers appear yellow in merged images. Scale bar, 100 μm.
Gpr56^fl/fl;PdgfrαCreER^− and Gpr56^fl/fl;PdgfrαCreER^+ P7 pups were injected with tamoxifen (50 mg kg^−1) for 3 days before the cerebellar harvesting. All cerebella were harvested on P10 and placed in ice-cold Hank's buffer (Fisher Scientific) before being cut into 300 μm thick sagittal sections with a vibratome (Leica Biosystems). Three slices were placed onto inserts (Millicell 0.4 μm, Millipore) in media containing 50% MEM, 25% Horse Serum, 25% Hank's Buffer, 1% GlutaMax, 5 mg/ml Glucose. […] Quantification of myelinated fibers was performed using Image J by subtracting background and applying threshold for both red and green channel, before measuring both myelinated and unmyelinated axon fibers.

The subject of experiment [2] is oligodendrocyte precursors (OPCs). The experiment can be described thus: OPC proliferation on laminin-111 or fibronectin with recombinant TG2. Format: cell-based, mouse. An excerpt: P=0.70 (control vs. TG2-W241A); **P=0.0088 (TG2 vs. TG2-W241A). […] FIG. 16D depicts a Western blot of active RhoA (top panel) and total RhoA (bottom panel) in the corpus callosum (CC) of Tgm2^+/+ and Tgm2^−/− mice. FIG. 16E is a graph showing that the relative level of active RhoA to total RhoA was diminished in the CC of Tgm2^−/− mice compared to […]. *P=0.0207, unpaired t-test, N=3 per genotype. FIG. 16F depicts a Western blot of GPR56^N in the supernatant of HEK 293T cell culture after exposed to either TG2 or TG2+laminin-111 (top panel), GTP-RhoA (middle panel) and total RhoA (lower panel) in HEK 293T cell pellet exposed to either TG2 or TG2+laminin-111. FIG. 16G is a graph showing that released GPR56 NTF was increased in the presence of both TG2 and laminin-111. ***P=0.0002; One-way ANOVA followed by Tukey post-hoc test, F (2,6)=49.66, n.s. P=0.95 (control vs. TG2); ***P=0.0003 (control vs. TG2+laminin-111); ***P=0.0004 (TG2 vs. TG2+laminin-111); N=3 per treatment group. FIG. 16H is a graph showing that the relative level of GTP-RhoA to total RhoA was increased in the presence of both TG2 and laminin-111, corresponding to the increased GPR56 NTF in the supernatant. **P=0.0028; One-way ANOVA followed by Tukey post-hoc test, F (2,6)=18.19, n.s. P=0.75 (control vs. TG2); **P=0.0035 (control vs. TG2+laminin-111); **P=0.0071 (TG2 vs. TG2+laminin-111) N=3 per treatment group. Error bars are mean±s.e.m in FIGS. 16E, 16G, and 16H.
To establish conditions for mechanistic investigation of the function of TG2 on OPC GPR56 during myelination and remyelination, in vitro experiments were performed with wt and Gpr56^−/− oligodendrocyte precursors (OPCs) and human recombinant TG2. […] TG2 is an extracellular protein with intrinsic transamidation activity, capable of cross-linking ECM proteins, including laminin-111 (Aeschlimann et al., J Biol Chem 267, 11316-11321, 1992; Belkin, FEBS J 278, 4704-4716, 2011). […] To confirm that TG2 regulates OPC proliferation in a GPR56-dependent manner, OPCs derived from P5 Gpr56^+/+ or Gpr56^−/− pups were cultured in the presence of laminin-111, with or without recombinant TG2. TG2-associated proliferation was attenuated in Gpr56^−/− OPCs (FIG. 16C), further supporting a GPR56-dependent TG2 function on OPC proliferation.
Oligodendrocyte precursor cells (OPCs) were isolated from mixed male and female P5-8 Gpr56^+/+ or Gpr56^−/− mouse forebrains as previously described (Wang et al., Neuron 29, 603-614, 2001; Watkins et al., Neuron 60, 555-569, 2008). Briefly, OPCs were purified by negatively selecting with mouse anti-Thy 1.2 (Serotec, Cat #MCA02R) and mouse anti-GalC (Millipore, Cat #MAB342), followed by mouse anti-04 (04 hybridoma supernatant) for positive selection. After releasing OPCs from the 04 plate by trypsinization, cells were resuspended in proliferation media containing PDGF-AA and NT-3 (PreproTech). OPCs were plated on coverslips coated with poly-D-lysine before coating with laminin I (R&D Systems, Cat #3400-010-01) or fibronectin (Millipore, Cat #341668) as previously described (Dugas et al., J Neurosci 26, 10967-10983, 2006). After 24 hr, TG2 (2 nM) was added to the cultures and incubated for an additional 24 hr before fixation with 4% PFA and staining for PDGFRα and Ki67.

The text below walks through data of patent US12358959B2, “Compositions and methods for oligodendrocyte development” (CHILDREN'S MEDICAL CENTER CORPORATION, priority 2016, dated 2025).

“Also recorded” adds a separate entry of the source.

As to Transglutaminase 2 [TG2], the “Remyelination (percentage of myelinated axons)” value in experiment [1] was “rescued remyelination failure; also recorded: promotes remyelination”. The OPC proliferation result is “attenuated” in experiment [2] (Gpr56−/− OPCs, in the presence of laminin-111, with recombinant TG2); “failed to respond” in experiment [2] (Gpr56−/− OPCs, in the presence of laminin-111, with recombinant TG2, listed as recombinant TG2); “failed to augment” in experiment [2] (wt OPCs, basal condition (no laminin-111), TG2 2 nM, 24 hr); “stimulated OPC proliferation” in experiment [2] (wt OPCs, in the presence of laminin-111, TG2 2 nM, 24 hr); “significantly increased” in experiment [2] (wt OPCs, in the presence of laminin-111, TG2 2 nM, 24 hr, listed as recombinant TG2). For the same substance, in experiment [2] (versus control, One-way ANOVA, Tukey post-hoc), the “OPC proliferation, wild type TG2 vs enzymatic dead mutant” value was “stimulated OPC proliferation”.
